Where two headings read alike, the source gives them in different places. Residues, ends and D or L forms follow the SMILES beside them.
Tests used:
[1] = molecular target: T1, human glucagon receptor (GCGR) (Homo sapiens, UniProt P47871); experiment: cAMP assay on CHO-JumpIn cells stably transfected with human glucagon receptor (HitHunter cAMP); assay type: cell-based; details: cAMP accumulation, CHO-JumpIn cells with human GCGR, value ± spread;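 note: peptides tested as 4-fold serial dilutions starting from a 2 µM solution, cells exposed 1 hr at RT in darkness, cAMP quantified against a cAMP standard curve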
T1 construct: expressed in transfected cells; host or cells: CHO-JumpIn cells, stably transfected
Procedure: (§1) Briefly, a 2 μM solution of peptide was prepared, and 4-fold serial dilutions were made. 150 nL of the above titration was then dispensed into an Optiplate384 using an Echo555. […] The HitHunter® cAMP Assay kit calibration curve was prepared following the manufacturer’s protocol (DiscoveRx-90-0075L). 30,000 cells/well were added to the peptides, spun briefly at 500 rpm for 15 s and incubated at RT in the dark for 1 hr. The assay was developed as per the manufacturer’s instructions. cAMP accumulation due to GLP1R agonism or GCGR agonism was measured using an EnVision platereader (PerkinElmer), and calibrated using the cAMP standard curve. Data were analyzed using Assay Data Analyzer (ADA).

[2] = molecular target: T2, human GLP-1 receptor (GLP1R) (Homo sapiens, UniProt P43220); experiment: cAMP assay on CHO-JumpIn cells stably transfected with human GLP-1 receptor (HitHunter cAMP); assay type: cell-based; details: Table 2, cAMP accumulation, buffer PBS, 0.1% BSA, 100 μM RO 20-1724, 20% serum, 1 hr at RT, value ± spread, read-out: EC50 GLP1R;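 note: peptides tested as 4-fold serial dilution series, cells exposed 1 hr at RT in the dark, cAMP quantified against a cAMP standard calibration curve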
T2 construct: expressed in transfected cells; host or cells: CHO-JumpIn cells, stably transfected
Procedure: as §1

[3] = Table 2, buffer PBS, 0.1% BSA, 100 μM RO 20-1724, 20% serum, 1 hr at RT, read-out: EC50 GCGR

T2 sequence (P43220 24-463): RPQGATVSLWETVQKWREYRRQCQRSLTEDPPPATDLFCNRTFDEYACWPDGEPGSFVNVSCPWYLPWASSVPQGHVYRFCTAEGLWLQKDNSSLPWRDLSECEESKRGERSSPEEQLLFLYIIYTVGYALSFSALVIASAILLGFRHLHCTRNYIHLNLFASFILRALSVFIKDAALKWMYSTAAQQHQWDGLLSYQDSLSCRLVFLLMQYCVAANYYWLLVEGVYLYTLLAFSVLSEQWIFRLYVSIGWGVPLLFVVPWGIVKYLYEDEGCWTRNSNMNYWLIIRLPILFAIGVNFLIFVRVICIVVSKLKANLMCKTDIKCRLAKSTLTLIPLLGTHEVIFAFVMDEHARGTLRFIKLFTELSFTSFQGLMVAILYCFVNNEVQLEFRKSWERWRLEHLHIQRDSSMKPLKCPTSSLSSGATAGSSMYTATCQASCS
T1 sequence (P47871 26-477): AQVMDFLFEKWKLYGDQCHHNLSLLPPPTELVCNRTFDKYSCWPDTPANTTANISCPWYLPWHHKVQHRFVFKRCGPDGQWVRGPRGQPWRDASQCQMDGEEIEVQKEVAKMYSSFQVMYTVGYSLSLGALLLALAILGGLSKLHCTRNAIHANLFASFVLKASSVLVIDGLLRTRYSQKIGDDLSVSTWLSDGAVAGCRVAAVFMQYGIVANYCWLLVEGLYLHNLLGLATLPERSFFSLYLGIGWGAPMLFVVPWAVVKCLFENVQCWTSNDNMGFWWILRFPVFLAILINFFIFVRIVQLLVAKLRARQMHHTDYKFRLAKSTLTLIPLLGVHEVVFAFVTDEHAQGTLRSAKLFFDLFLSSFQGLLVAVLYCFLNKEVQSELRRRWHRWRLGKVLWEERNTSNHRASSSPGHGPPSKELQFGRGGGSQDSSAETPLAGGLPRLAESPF

Structure (SMILES) | EC50 [1, 3] | EC50 [2] | EC50 ([1]; Table 3, engineered versus parent peptides, read-out: EC50 hGCGR)
CSCC[C@H](NC(=O)[C@H](CC(C)C)NC(=O)[C@H](Cc1c[nH]c2ccccc12)NC(=O)[C@H](CCC(N)=O)NC(=O)[C@@H](NC(=O)[C@H](Cc1ccccc1)NC(=O)[C@H](CC(=O)O)NC(=O)[C@H](CCC(N)=O)NC(=O)[C@H](C)NC(=O)[C@H](CCCNC(=N)N)NC(=O)[C@H](CCCNC(=N)N)NC(=O)[C@H](CO)NC(=O)[C@H](CC(=O)O)NC(=O)[C@H](CC(C)C)NC(=O)[C@H](Cc1ccc(O)cc1)NC(=O)[C@H](CCCCN)NC(=O)[C@H](CO)NC(=O)[C@H](Cc1ccc(O)cc1)NC(=O)[C@H](CC(=O)O)NC(=O)[C@H](CO)NC(=O)[C@H](Cc1c[nH]c2ccccc12)NC(=O)[C@H](Cc1ccccc1)NC(=O)[C@H](CC(N)=O)NC(=O)CNC(=O)[C@@H](NC(=O)[C@H](CO)NC(=O)[C@@H](N)Cc1c[nH]cn1)C(C)C)C(C)C)C(=O)N[C@@H](CC(C)C)C(=O)N[C@H](C(N)=O)[C@@H](C)O [Peptide 1] (H-HSVGNFWSDYSKYLDSRRAQDFVQWLMLT-NH2) | 8.45 ± 2.67 nM | 16.7 ± 10.3 nM | 
CSCC[C@H](NC(=O)[C@H](CC(C)C)NC(=O)[C@H](Cc1c[nH]c2ccccc12)NC(=O)[C@H](CCC(N)=O)NC(=O)[C@@H](NC(=O)[C@H](Cc1ccccc1)NC(=O)[C@H](CC(=O)O)NC(=O)[C@H](Cc1c[nH]cn1)NC(=O)[C@H](C)NC(=O)[C@H](CCCNC(=N)N)NC(=O)[C@H](CCCNC(=N)N)NC(=O)[C@H](CC(=O)O)NC(=O)[C@H](CCC(=O)O)NC(=O)[C@@H](NC(=O)[C@H](Cc1ccc(O)cc1)NC(=O)[C@H](CCCCN)NC(=O)[C@H](CO)NC(=O)[C@H](Cc1ccc(O)cc1)NC(=O)[C@H](CC(=O)O)NC(=O)[C@H](CO)NC(=O)[C@@H](NC(=O)[C@H](Cc1ccccc1)NC(=O)[C@@H](NC(=O)CNC(=O)[C@H](CCC(N)=O)NC(=O)[C@H](CO)NC(=O)[C@@H](N)Cc1c[nH]cn1)[C@@H](C)O)[C@@H](C)O)C(C)C)C(C)C)C(=O)N[C@@H](CC(N)=O)C(=O)N[C@H](C(N)=O)[C@@H](C)O [Peptide 2] (H-HSQGTFTSDYSKYVEDRRAHDFVQWLMNT-NH2) | 2.24 ± 0.334 nM | 0.184 ± 0.006 nM | 
CSCC[C@H](NC(=O)[C@H](CC(C)C)NC(=O)[C@H](Cc1c[nH]c2ccccc12)NC(=O)[C@H](CCC(N)=O)NC(=O)[C@@H](NC(=O)[C@H](Cc1ccccc1)NC(=O)[C@H](CC(=O)O)NC(=O)[C@H](Cc1c[nH]c2ccccc12)NC(=O)[C@H](C)NC(=O)[C@H](C)NC(=O)[C@H](CCCNC(=N)N)NC(=O)[C@H](CCC(=O)O)NC(=O)[C@H](CC(=O)O)NC(=O)[C@H](CC(C)C)NC(=O)[C@H](Cc1ccc(O)cc1)NC(=O)[C@H](CCCCN)NC(=O)[C@H](CCCNC(=N)N)NC(=O)[C@H](Cc1ccc(O)cc1)NC(=O)[C@H](CC(=O)O)NC(=O)[C@H](CO)NC(=O)[C@@H](NC(=O)[C@H](Cc1ccccc1)NC(=O)[C@@H](NC(=O)CNC(=O)[C@H](CCC(N)=O)NC(=O)[C@H](CO)NC(=O)[C@@H](N)Cc1c[nH]cn1)[C@@H](C)O)[C@@H](C)O)C(C)C)C(=O)N[C@@H](CC(N)=O)C(=O)N[C@H](C(N)=O)[C@@H](C)O [Peptide 3] (H-HSQGTFTSDYRKYLDERAAWDFVQWLMNT-NH2) | 1.35 ± 0.173 nM | 0.427 ± 0.022 nM | 
CC[C@H](C)[C@H](NC(=O)[C@H](CC(=O)O)NC(=O)[C@H](CC(C)C)NC(=O)[C@H](Cc1ccc(O)cc1)NC(=O)[C@H](CCCCN)NC(=O)[C@H](CO)NC(=O)[C@H](Cc1ccc(O)cc1)NC(=O)[C@H](CC(=O)O)NC(=O)[C@H](CO)NC(=O)[C@@H](NC(=O)[C@H](Cc1ccccc1)NC(=O)[C@@H](NC(=O)CNC(=O)[C@H](CCC(N)=O)NC(=O)[C@H](CO)NC(=O)[C@@H](N)Cc1c[nH]cn1)[C@@H](C)O)[C@@H](C)O)C(=O)NCC(=O)N[C@@H](CCCNC(=N)N)C(=O)N[C@@H](C)C(=O)N[C@@H](CCC(N)=O)C(=O)N[C@@H](CC(=O)O)C(=O)N[C@@H](Cc1ccccc1)C(=O)N[C@H](C(=O)N[C@@H](CCC(N)=O)C(=O)N[C@@H](Cc1c[nH]c2ccccc12)C(=O)N[C@@H](CC(C)C)C(=O)N[C@@H](CC(C)C)C(=O)N[C@@H](CC(N)=O)C(=O)N[C@H](C(N)=O)[C@@H](C)O)C(C)C [Peptide 4] (H-HSQGTFTSDYSKYLDIGRAQDFVQWLLNT-NH2) | 0.026 ± 0.002 nM | 1.33 ± 0.209 nM | 
CSCC[C@H](NC(=O)[C@H](CC(C)C)NC(=O)[C@H](CO)NC(=O)[C@H](CC(=O)O)NC(=O)[C@H](CC(C)C)NC(=O)[C@H](Cc1ccc(O)cc1)NC(=O)[C@H](CCCCN)NC(=O)[C@H](CO)NC(=O)[C@H](Cc1ccc(O)cc1)NC(=O)[C@H](CC(=O)O)NC(=O)[C@H](CO)NC(=O)[C@@H](NC(=O)[C@H](Cc1ccccc1)NC(=O)[C@@H](NC(=O)CNC(=O)[C@H](CCC(N)=O)NC(=O)[C@H](CO)NC(=O)[C@@H](N)Cc1c[nH]cn1)[C@@H](C)O)[C@@H](C)O)C(=O)N[C@@H](C)C(=O)N[C@@H](CCC(N)=O)C(=O)N[C@@H](CC(=O)O)C(=O)N[C@@H](Cc1ccccc1)C(=O)N[C@H](C(=O)N[C@@H](CCC(N)=O)C(=O)N[C@@H](Cc1c[nH]c2ccccc12)C(=O)N[C@@H](CC(C)C)C(=O)N[C@@H](CCSC)C(=O)N[C@@H](CO)C(=O)N[C@H](C(N)=O)[C@@H](C)O)C(C)C [Peptide 5] (H-HSQGTFTSDYSKYLDSLMAQDFVQWLMST-NH2) | 0.025 ± 0.001 nM | 0.133 ± 0.032 nM | 

Second part, the molecule after the results:

EC50 [1, 3] | EC50 [2] | EC50 ([1]; Table 3, engineered versus parent peptides, read-out: EC50 hGCGR) | Structure (SMILES)
0.032 ± 0.013 nM | 0.063 ± 0.034 nM |  | CC(C)C[C@H](NC(=O)[C@H](Cc1ccc(O)cc1)NC(=O)[C@H](CCCCN)NC(=O)[C@H](CO)NC(=O)[C@H](Cc1ccc(O)cc1)NC(=O)[C@H](CC(=O)O)NC(=O)[C@H](CO)NC(=O)[C@@H](NC(=O)[C@H](Cc1ccccc1)NC(=O)[C@@H](NC(=O)CNC(=O)[C@H](CCC(N)=O)NC(=O)[C@H](CO)NC(=O)[C@@H](N)Cc1c[nH]cn1)[C@@H](C)O)[C@@H](C)O)C(=O)N[C@@H](CC(=O)O)C(=O)N[C@@H](Cc1c[nH]c2ccccc12)C(=O)N[C@@H](CCCNC(=N)N)C(=O)N[C@@H](CCCNC(=N)N)C(=O)N[C@@H](C)C(=O)N[C@@H](CCC(N)=O)C(=O)N[C@@H](CC(=O)O)C(=O)N[C@@H](Cc1ccccc1)C(=O)N[C@H](C(=O)N[C@@H](CCC(N)=O)C(=O)N[C@@H](Cc1c[nH]c2ccccc12)C(=O)N[C@@H](CC(C)C)C(=O)N[C@@H](CC(C)C)C(=O)N[C@@H](CC(N)=O)C(=O)N[C@H](C(N)=O)[C@@H](C)O)C(C)C [Peptide 6]
2.6 ± 3.68 nM |  |  | CC[C@H](C)[C@H](N)C(=O)N[C@@H](CC(N)=O)C(=O)N[C@@H](Cc1c[nH]cn1)C(=O)N[C@@H](CCC(=O)O)C(=O)N[C@@H](CCC(N)=O)C(=O)N[C@@H](Cc1c[nH]c2ccccc12)C(=O)N[C@@H](C)C(=O)N[C@@H](Cc1ccccc1)C(=O)N[C@H](C(=O)N[C@@H](CO)C(=O)N[C@@H](CC(=O)O)C(=O)N[C@@H](Cc1ccc(O)cc1)C(=O)N[C@@H](CO)C(=O)N[C@@H](CCCCN)C(=O)N[C@@H](Cc1ccc(O)cc1)C(=O)N[C@@H](CC(C)C)C(=O)N[C@@H](CC(=O)O)C(=O)N[C@@H](CO)C(=O)N[C@@H](CCCNC(=N)N)C(=O)N[C@@H](CCCNC(=N)N)C(=O)N[C@@H](C)C(=O)N[C@@H](CCC(N)=O)C(=O)N[C@@H](CC(=O)O)C(=O)N[C@@H](Cc1ccccc1)C(=O)N[C@H](C(=O)N[C@@H](CCC(N)=O)C(=O)N[C@@H](Cc1c[nH]c2ccccc12)C(=O)N[C@@H](CC(C)C)C(=O)N[C@@H](CCSC)C(=O)N[C@@H](CC(N)=O)C(=O)N[C@H](C(N)=O)[C@@H](C)O)C(C)C)[C@@H](C)O [Peptide 14] (H-INHEQWAFTSDYSKYLDSRRAQDFVQWLMNT-NH2)
 | 0.018 ± 0.001 nM |  | CC(C)C[C@H](NC(=O)[C@H](CC(C)C)NC(=O)[C@H](Cc1c[nH]c2ccccc12)NC(=O)[C@H](CCC(N)=O)NC(=O)[C@@H](NC(=O)[C@H](Cc1ccccc1)NC(=O)[C@H](CC(=O)O)NC(=O)[C@H](CCC(N)=O)NC(=O)[C@H](C)NC(=O)[C@H](CCCNC(=N)N)NC(=O)[C@H](CCCNC(=N)N)NC(=O)[C@H](CO)NC(=O)[C@H](CC(=O)O)NC(=O)[C@H](CC(C)C)NC(=O)[C@H](Cc1ccc(O)cc1)NC(=O)[C@H](CCCCN)NC(=O)[C@H](CO)NC(=O)[C@H](Cc1ccc(O)cc1)NC(=O)[C@H](CC(=O)O)NC(=O)[C@H](CO)NC(=O)[C@@H](NC(=O)[C@H](Cc1ccccc1)NC(=O)[C@@H](NC(=O)CNC(=O)[C@H](CCC(N)=O)NC(=O)[C@H](CO)NC(=O)[C@@H](N)Cc1c[nH]cn1)[C@@H](C)O)[C@@H](C)O)C(C)C)C(=O)N[C@@H](CC(=O)O)C(=O)N[C@@H](CO)C(N)=O [Peptide 35]
 |  | 0.023 ± 0.004 nM | CCCCCCCCCCCCCCCC(=O)N[C@@H](CCC(=O)N[C@@H](CCC(=O)NCCCC[C@H](NC(=O)[C@H](CC(=O)O)NC(=O)[C@H](CO)NC(=O)[C@@H](NC(=O)[C@H](Cc1ccccc1)NC(=O)[C@@H](NC(=O)CNC(=O)[C@H](CCC(N)=O)NC(=O)[C@@H](CO)NC(=O)[C@@H](N)Cc1c[nH]cn1)[C@@H](C)O)[C@@H](C)O)C(=O)N[C@@H](CO)C(=O)N[C@@H](CCCCN)C(=O)N[C@@H](Cc1ccc(O)cc1)C(=O)N[C@@H](CC(C)C)C(=O)N[C@@H](CC(=O)O)C(=O)N[C@@H](CO)C(=O)N[C@@H](CCCNC(=N)N)C(=O)N[C@@H](CCCNC(=N)N)C(=O)N[C@@H](C)C(=O)N[C@@H](Cc1c[nH]cn1)C(=O)N[C@@H](CC(=O)O)C(=O)N[C@@H](Cc1ccccc1)C(=O)N[C@H](C(=O)N[C@@H](CCC(N)=O)C(=O)N[C@@H](Cc1c[nH]c2ccccc12)C(=O)N[C@@H](CC(C)C)C(=O)N[C@@H](CC(C)C)C(=O)N[C@@H](CC(N)=O)C(=O)N[C@H](C(N)=O)[C@@H](C)O)C(C)C)C(=O)O)C(=O)O [Peptide 36]

From publication PMC5766609 (Scientific Reports, 2018)
